Data on 14 compounds can be found in patent US7220824B1, “Integrin-mediated drug targeting” (Bayer Aktiengesellschaft, priority 2000, dated 2007).

For orientation: IC50 means the point on the concentration scale where inhibition reaches its midpoint.

For assay [1], the target named is T1, αvβ3 receptor (αvβ3 from human A375 cells) (Homo sapiens, UniProt P05106+P06756).
T1 construct: αvβ3 from human A375 cells was purified analogously to a procedure which was described by Wong et al; endogenous in cells; host or cells: human A375 cells; the receptor was purified from the cells and used detergent-solubilised (n-octyl-glucopyranoside)
The assay can be described thus: αvβ3 binding test (echistatin displacement, WGA SPA beads). The protocol:
αvβ3 from human A375 cells was purified analogously to a procedure which was described by Wong et al. (Molecular Pharmacology, 50, 529–537 (1996)). In each case, 10 μl of αvβ3 (5 ng) in TBS pH 7.6, 2 mM CaCl2, 1 mM MgCl2, 1% n-octyl-glucopyranoside (Sigma); 10 μl of test substance in TBS pH 7.6, 0.1% DMSO and 45 μl of TBS pH 7.6, 2 mM CaCl2, 1 mM MgCl2, 1 mM MnCl2 were incubated at room temperature for 1 h. In each case, 25 μl of WGA SPA beads (Amersham, 4 mg/ml) and 10 μl of echistatin ([…], Amersham, chloramine-T labelled) were then added. After 16 hours at room temperature, the samples were measured in a scintillation measuring apparatus (Wallac 1450).

Another assay has as its system MDA-MB 231. The experiment in a line: Growth inhibition test (MTT), cytotoxic action on tumour cell lines. Type of assay: cell-based. The following applies: Homo sapiens, MDA-MB-231, 144 h, read-out: IC50 values of the cytotoxic action on tumour cell lines, MDA-MB 231. The procedure: (§1) The human large intestine cell lines SW 480 and HT29 (ATCC No. CCL 228 and HTB38), the human breast cell lines MDA-MB 231, MCF-7 and BT20 (ATCC No. HTB-, 26, 22 and 23) and the mouse melanoma cell line B16F 10 (CRL 6475) were grown to confluence in Roux dishes in RPMI 1640 medium with addition of 10% FCS. They were then trypsinized and taken up in RPMI plus 10% FCS to a cell count of 50,000 cells or, for B16F10, 20,000 cells per ml. 100 μl of cell suspension/well were added to a 96 microwell plate and incubated at 37° C. for 1 day in a CO2 incubator. A further 100 μl of RPMI medium and 1 μl of DMSO were then added with the test substances. The growth was checked after day 6. For this, 25 μl of MTT solution (3-(4,5-dimethylthiazol-2-yl)-2,5-diphenyltetrazolium bromide) was added to each well at a starting concentration of 5 mg/ml of H2O. The plate was incubated at 37° C. for 5 hours in a CO2 incubator. The medium was then aspirated and 100 μl of i-propanol/well were added. After shaking with 100 μl of H2O for 30 min, the extinction was measured at 595-nm using a Multiplate Reader (BIO-RAD 3550-UV).
(§2) The cytostatic action is indicated in Table 2 as an IC50 value, in each case for the individual cell lines.

The next assay relates to HT 29. The description is as above. It is filed as cell-based. Particulars: Homo sapiens, HT-29, 144 h, read-out: IC50 values of the cytotoxic action on tumour cell lines, HT 29. The procedure:
as §1, §2

A further assay concerns SW480. Described as above. The following applies: Homo sapiens, SW480, 144 h, read-out: IC50 values of the cytotoxic action on tumour cell lines, SW480. Type of assay: cell-based. The procedure:
as §1, §2

Another assay deals with BT20. Described as above. Particulars: Homo sapiens, BT-20, 144 h, read-out: IC50 values of the cytotoxic action on tumour cell lines, BT20. Type of assay: cell-based. The procedure: as §1, §2
The next assay concerns B16F10. The description is as above. The following applies: Mus musculus, B16-F10, 144 h, read-out: IC50 values of the cytotoxic action on tumour cell lines, B16F10. It is filed as cell-based. The protocol:
as §1, §2

The test system of a further assay is MCF7. Described as above. It is filed as cell-based. Particulars: Homo sapiens, MCF7, 144 h, read-out: IC50 values of the cytotoxic action on tumour cell lines, MCF7. The procedure:
as §1, §2

[2] abbreviates: αvβ3 purified from human A375 cells, labelled echistatin, read-out: IC50 values of the binding to the αvβ3 receptor.

Read-outs that look alike come from different tables or passages of the source.

T1 sequence (P06756 31-889 limits assumed): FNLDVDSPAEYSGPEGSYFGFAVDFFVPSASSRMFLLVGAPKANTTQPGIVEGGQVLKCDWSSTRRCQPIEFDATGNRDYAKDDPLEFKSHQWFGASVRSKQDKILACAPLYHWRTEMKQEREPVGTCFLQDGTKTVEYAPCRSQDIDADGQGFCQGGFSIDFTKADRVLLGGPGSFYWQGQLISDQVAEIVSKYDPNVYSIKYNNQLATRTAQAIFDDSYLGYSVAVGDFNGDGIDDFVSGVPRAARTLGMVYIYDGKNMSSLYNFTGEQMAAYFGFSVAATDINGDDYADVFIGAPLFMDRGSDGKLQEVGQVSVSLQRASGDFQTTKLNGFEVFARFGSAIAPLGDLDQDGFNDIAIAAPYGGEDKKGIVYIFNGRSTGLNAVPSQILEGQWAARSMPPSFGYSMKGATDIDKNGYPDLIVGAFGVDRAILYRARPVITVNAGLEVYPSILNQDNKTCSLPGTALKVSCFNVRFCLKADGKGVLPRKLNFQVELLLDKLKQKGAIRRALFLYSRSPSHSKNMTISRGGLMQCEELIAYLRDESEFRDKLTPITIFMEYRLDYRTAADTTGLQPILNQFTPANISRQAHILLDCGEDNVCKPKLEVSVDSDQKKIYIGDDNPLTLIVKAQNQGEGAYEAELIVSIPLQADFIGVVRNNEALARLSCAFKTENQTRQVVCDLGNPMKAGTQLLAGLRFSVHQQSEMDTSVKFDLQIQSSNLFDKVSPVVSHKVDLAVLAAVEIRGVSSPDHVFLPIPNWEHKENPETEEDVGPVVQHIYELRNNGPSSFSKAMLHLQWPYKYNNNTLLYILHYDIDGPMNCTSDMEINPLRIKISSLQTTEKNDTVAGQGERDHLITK
T1 sequence (P06756 891-1048 partner limits assumed): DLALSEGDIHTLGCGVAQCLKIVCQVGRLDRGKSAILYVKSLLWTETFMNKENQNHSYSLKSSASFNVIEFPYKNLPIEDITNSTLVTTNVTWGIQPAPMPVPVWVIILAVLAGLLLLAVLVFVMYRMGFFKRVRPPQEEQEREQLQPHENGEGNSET
T1 sequence (P05106 27-788): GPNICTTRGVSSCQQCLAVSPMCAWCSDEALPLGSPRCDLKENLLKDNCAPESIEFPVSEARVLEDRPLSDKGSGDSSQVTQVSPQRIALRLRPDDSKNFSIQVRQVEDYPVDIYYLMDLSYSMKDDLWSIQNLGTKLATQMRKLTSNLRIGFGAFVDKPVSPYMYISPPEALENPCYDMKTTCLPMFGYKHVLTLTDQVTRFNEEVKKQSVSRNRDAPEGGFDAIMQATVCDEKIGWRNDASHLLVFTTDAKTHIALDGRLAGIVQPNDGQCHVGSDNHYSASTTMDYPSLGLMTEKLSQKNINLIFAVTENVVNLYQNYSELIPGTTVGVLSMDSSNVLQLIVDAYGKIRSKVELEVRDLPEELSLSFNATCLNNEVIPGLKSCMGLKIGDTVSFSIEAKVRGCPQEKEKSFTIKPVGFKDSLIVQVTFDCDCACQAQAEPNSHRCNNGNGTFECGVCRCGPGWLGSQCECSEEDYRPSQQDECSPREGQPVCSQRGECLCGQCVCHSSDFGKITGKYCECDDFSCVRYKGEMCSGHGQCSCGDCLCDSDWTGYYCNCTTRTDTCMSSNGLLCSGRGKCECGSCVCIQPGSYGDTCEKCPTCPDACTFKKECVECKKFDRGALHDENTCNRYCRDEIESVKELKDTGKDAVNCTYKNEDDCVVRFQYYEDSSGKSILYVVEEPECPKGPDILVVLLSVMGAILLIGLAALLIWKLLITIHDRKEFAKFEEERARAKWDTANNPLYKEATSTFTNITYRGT

For the compound `CC[C@@]1(OC(=O)[C@@H](NC(=O)Nc2cccc(-c3ccc(C[C@H](NS(=O)(=O)CC45CCC(CC4=O)C5(C)C)C(=O)O)cc3)c2)C(C)C)C(=O)OCc2c1cc1n(c2=O)Cc2cc3ccccc3nc2-1` (stereo partly drawn) [Example 2.8], the IC50 in assay [1] (setting [2]) is 83 nM; in the assay on MDA-MB 231, 15 nM; in the assay with HT 29, 10 nM; with SW480, 20 nM; with BT20, 9 nM; in the assay on B16F10, 200 nM. Moreover, the IC50 in the assay on MCF7 is 10 nM.

On to `CC[C@@]1(OC(=O)[C@@H](NC(=O)[C@H](CCCCNC(=O)OCC2c3ccccc3-c3ccccc32)NC(=O)Nc2cccc(-c3ccc(C[C@H](NS(=O)(=O)CC45CCC(CC4=O)C5(C)C)C(=O)O)cc3)c2)C(C)C)C(=O)OCc2c1cc1n(c2=O)Cc2cc3ccccc3nc2-1` (stereo partly drawn) [Example 2.6], for which the half-maximal inhibitory concentration (IC50) came to 239 nM in assay [1]; 3000 nM in the assay with MDA-MB 231; 3000 nM in the assay with HT 29; 3000 nM with SW480; 9000 nM with BT20; 10000 nM with B16F10. In the assay on MCF7, the IC50 is 5000 nM.

On to `CC[C@@]1(OC(=O)CCC(=O)NC(CC(=O)O)c2cccc(NS(=O)(=O)c3cccc(NC(=N)N)c3)c2)C(=O)OCc2c1cc1n(c2=O)Cc2cc3ccccc3nc2-1` (stereo partly drawn) [Example 3.18], for which the IC50 in assay [1] came out at 79 nM; with MDA-MB 231, 500 nM; in the assay with HT 29 it was 180 nM; in the assay with SW480, 300 nM; in the assay with BT20, 900 nM; in the assay with B16F10 it was 1000 nM. In the assay with MCF7, the IC50 was determined as 600 nM.

As for `CCCNC(=O)Nc1cccc(-c2ccc(CC(NS(=O)(=O)c3cccc(NC(=S)N[C@@H](Cc4c[nH]cn4)C(=O)N[C@H](C(=O)O[C@]4(CC)C(=O)OCc5c4cc4n(c5=O)Cc5cc6ccccc6nc5-4)C(C)C)c3)C(=O)O)cc2)c1` (stereo partly drawn) [Example 3.10], the IC50 in assay [1] (setting [2]) was found to be 154 nM; with MDA-MB 231, 200 nM; with HT 29, 350 nM; in the assay with SW480, 300 nM; in the assay on BT20, 400 nM; in the assay on B16F10, 800 nM. Moreover, the half-maximal inhibitory concentration (IC50) in the assay with MCF7 worked out at 200 nM.

Regarding `CC[C@@]1(OC(=O)[C@@H](NC(=O)[C@H](Cc2c[nH]cn2)NC(=S)Nc2cccc(S(=O)(=O)NC(CC(=O)O)c3cccc(NS(=O)(=O)c4cccc(NC(=N)N)c4)c3)c2)C(C)C)C(=O)OCc2c1cc1n(c2=O)Cc2cc3ccccc3nc2-1` (stereo partly drawn) [Example 3.1], the half-maximal inhibitory concentration (IC50) in assay [1] is 147 nM; in the assay with MDA-MB 231, 500 nM; in the assay on HT 29 it was 400 nM; in the assay on SW480, 1000 nM; with BT20, 1000 nM; in the assay with B16F10, 1000 nM. For the same compound, the half-maximal inhibitory concentration (IC50) with MCF7 was found to be 800 nM.

`CC[C@@]1(OC(=O)[C@@H](NC(=O)[C@H](CCCCN)NC(=S)Nc2ccc(S(=O)(=O)NC(CC(=O)O)c3cccc(NS(=O)(=O)c4cccc(NC(=N)N)c4)c3)cc2)C(C)C)C(=O)OCc2c1cc1n(c2=O)Cc2cc3ccccc3nc2-1` (stereo partly drawn) [Example 3.4]: the 50% inhibitory concentration (IC50) in assay [1] (setting [2]) is 65 nM; in the assay on MDA-MB 231, 300 nM; in the assay on HT 29, 200 nM; with SW480, 200 nM; in the assay with BT20, 700 nM; in the assay on B16F10 it was 500 nM. Moreover, in the assay on MCF7, the concentration for half-maximal inhibition (IC50) is 700 nM.

On to `CC[C@@]1(OC(=O)[C@@H](NC(=O)C(Cc2c[nH]cn2)NC(=S)Nc2ccc(CC(NS(=O)(=O)c3ccc(-c4cccc(NC(=O)Nc5nc6ccccc6[nH]5)c4)cc3)C(=O)O)cc2)C(C)C)C(=O)OCc2c1cc1n(c2=O)Cc2cc3ccccc3nc2-1` (stereo partly drawn) [Example 3.11], for which the IC50 was determined as 97 nM in assay [1]; 400 nM with MDA-MB 231; 300 nM in the assay on HT 29; 600 nM in the assay with SW480; 500 nM with BT20; 600 nM with B16F10. In addition, in the assay on MCF7, the IC50 turned out to be 250 nM.

As to `CC[C@@]1(OC(=O)[C@@H](NC(=O)[C@H](CCCCNC(=O)OCC2c3ccccc3-c3ccccc32)NC(=O)Nc2cccc(-c3ccc(S(=O)(=O)NC(CC(=O)O)c4ccccc4)cc3)c2)C(C)C)C(=O)OCc2c1cc1n(c2=O)Cc2cc3ccccc3nc2-1` (stereo partly drawn) [Example 2.14], the IC50 was 84 nM in assay [1]; 300 nM with MDA-MB 231; 300 nM in the assay with HT 29; 300 nM with SW480; 200 nM in the assay with BT20; 25 nM in the assay on B16F10. Moreover, the 50% inhibitory concentration (IC50) with MCF7 stood at 150 nM.

`CCCNC(=O)Nc1cccc(-c2ccc(CC(NC(=S)Nc3cccc4nc5c(cc34)Cn3c-5cc4c(c3=O)COC(=O)[C@]4(O)CC)C(=O)O)cc2)c1` (stereo partly drawn) [Example 3.15]: the IC50 amounted to 61 nM in assay [1] (setting [2]); 200 nM in the assay with MDA-MB 231; 200 nM with HT 29; 200 nM in the assay with SW480; 2000 nM with BT20; 6000 nM in the assay with B16F10. Also, the IC50 in the assay on MCF7 was 300 nM.

As for `CC[C@@]1(O)C(=O)OCc2c1cc1n(c2=O)Cc2cc3c(NC(=S)NC(CC(=O)O)c4cccc(NS(=O)(=O)c5cccc(NC(=N)N)c5)c4)cccc3nc2-1` (stereo partly drawn) [Example 3.17], the IC50 in assay [1] (setting [2]) is 66 nM; in the assay on MDA-MB 231, 3000 nM; in the assay with HT 29, 600 nM; in the assay on SW480 it was 800 nM; in the assay on BT20, 5000 nM; with B16F10, 5000 nM.

Take `CC[C@@]1(OC(=O)[C@@H](NC(=O)[C@H](Cc2c[nH]cn2)NC(=S)Nc2ccc(C(=O)NC(CC(=O)O)c3cccc(NS(=O)(=O)c4cccc(NC(=N)N)c4)c3)cc2)C(C)C)C(=O)OCc2c1cc1n(c2=O)Cc2cc3ccccc3nc2-1` (stereo partly drawn) [Example 3.3]: the IC50 in assay [1] was determined as 45 nM; in the assay with MDA-MB 231, 100 nM; in the assay with HT 29 it was 90 nM; with SW480, 300 nM; with BT20 it was 150 nM; in the assay with MCF7 it was 100 nM.

Consider `CC[C@@]1(OC(=O)[C@@H](NC(=O)[C@H](CCCCNC(=O)CC(NC(=O)CNC(=O)c2cccc(NC(=N)N)c2)c2ccccc2)NC(=S)Nc2ccccc2)C(C)C)C(=O)OCc2c1cc1n(c2=O)Cc2cc3ccccc3nc2-1` (stereo partly drawn) [Example 1.1], for which the IC50 in assay [1] (setting [2]) was 873 nM; with MDA-MB 231 it was 100 nM; with HT 29, 120 nM; in the assay with SW480, 200 nM; in the assay on BT20 it was 150 nM; in the assay with MCF7, 90 nM.

Take `CC[C@@]1(OC(=O)[C@@H](NC(=O)[C@H](CCC(=O)O)NC(=S)Nc2cccc(C(=O)NCC(=O)NC(CC(=O)O)c3ccccc3)c2)C(C)C)C(=O)OCc2c1cc1n(c2=O)Cc2cc3ccccc3nc2-1` (stereo partly drawn) [Example 2.2]: the IC50 in assay [1] (setting [2]) is 1500 nM; in the assay with MDA-MB 231 it was 300 nM; in the assay with HT 29 it was 300 nM; in the assay with SW480 it was 500 nM; with BT20, 400 nM; with MCF7, 300 nM.

On to `CC[C@@]1(OC(=O)[C@@H](NC(=O)[C@H](Cc2c[nH]cn2)NC(=S)Nc2cccc(S(=O)(=O)Nc3cccc(C(CC(=O)O)NS(=O)(=O)c4ccccc4)c3)c2)C(C)C)C(=O)OCc2c1cc1n(c2=O)Cc2cc3ccccc3nc2-1` (stereo partly drawn) [Example 2.3], for which the IC50 in assay [1] came out at 697 nM; in the assay with MDA-MB 231, 20 nM; with HT 29, 70 nM; in the assay with SW480 it was 120 nM; in the assay with BT20, 80 nM; in the assay with MCF7 it was 60 nM.
